Laboratory results as given in patent US6906073B2, “Piperazine CCR-3 receptor antagonists” (Roche Palo Alto LLC, priority 2001, dated 2005).
Where a name gives a salt, the structure may show the parent alone.

Legend:
CCR-3 receptor = molecular target: T1, CCR-3 receptor (Homo sapiens, UniProt P51677); experiment: CCR-3 Receptor Binding Assay - In Vitro (inhibition of 125I eotaxin binding to CCR-3 L1.2 transfectant cells); settings: inhibition of binding of 125I eotaxin to CCR-3 L1.2 transfectant cells, 1 hour at room temperature
T1 construct: expressed in transfected cells; host or cells: L1.2 (murine pre-B lymphoma line)
T1 sequence (P51677 1-355): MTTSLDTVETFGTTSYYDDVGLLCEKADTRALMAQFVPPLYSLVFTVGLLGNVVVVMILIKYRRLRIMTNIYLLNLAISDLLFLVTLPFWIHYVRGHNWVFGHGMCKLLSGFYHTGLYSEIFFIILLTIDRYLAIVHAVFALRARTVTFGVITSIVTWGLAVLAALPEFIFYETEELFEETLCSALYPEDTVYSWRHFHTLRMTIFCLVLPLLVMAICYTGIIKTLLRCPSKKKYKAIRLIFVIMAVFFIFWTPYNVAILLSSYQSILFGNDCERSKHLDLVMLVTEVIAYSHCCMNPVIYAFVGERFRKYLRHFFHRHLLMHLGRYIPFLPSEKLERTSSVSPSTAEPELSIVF
Procedure: CCR-3 Receptor Binding Assay—In Vitro
The CCR-3 antagonistic activity of the compounds of the invention was determined by their ability to inhibit the binding of ^125I eotaxin to CCR-3 L1.2 transfectant cells (see Ponath, P. D. et al., J. Exp. Med., Vol. 183, 2437-2448, (1996)).
The assay was performed in Costar 96-well polypropylene round bottom plates. Test compounds were dissolved in DMSO and then diluted with binding buffer (50 mM HEPES, 1 mM CaCl2, 5 mM MgCl2, 0.5% bovine serum albumin (BSA), 0.02% sodium azide, pH 7.24) such that the final DMSO concentration was 2%. 25 μl of the test solution or only buffer with DMSO (control samples) was added to each well, followed by the addition of 25 μl of ^125I-eotaxin ([…]) (NEX314, New England Nuclear, Boston, Mass.) and 1.5×10^5 of the CCR-3 L1.2 transfected cells in 25 μl binding buffer. The final reaction volume was 75 μl.
After incubating the reaction mixture for 1 hour at room temperature, the reaction was terminated by filtering the reaction mixture through polyethylenimine treated Packard Unifilter GF/C filter plate (Packard, Chicago, Ill.). The filters were washed four times with ice cold wash buffer containing 10 mm HEPES and 0.5M sodium chloride (pH 7.2) and dried at 65° C. for approximately 10 minutes. 25 μl/well of Microscint-20® scintillation fluid (Packard) was added and the radioactivity retained on the filters was determined by using the Packard TopCount®

Row | Compound | melting point | IC50 (CCR-3 receptor)
1 | COc1cc(NC(=O)N[C@@H]2COC[C@H]2N2CCN(Cc3ccc(Cl)cc3)CC2)cc(OC)c1OC (racemic) (as salt: hydrochloride) [compound 7, (±)-trans-1-{4-[4-(4-chlorobenzyl)-piperazin-1-yl]-tetrahydrofuran-3-yl}-3-(3,4,5-trimethoxyphenyl)urea dihydrochloride] | 190.8 to 204.3 °C | –
2 | COc1cc(NC(=O)N[C@@H]2COC[C@H]2N2CCN(Cc3ccc(Cl)cc3)CC2)cc(OC)c1OC (racemic) [compound 7, (±)-trans-1-{4-[4-(4-chlorobenzyl)-piperazin-1-yl]-tetrahydrofuran-3-yl}-3-(3,4,5-trimethoxyphenyl)urea dihydrochloride] | – | 0.11 µM
3 | O=C(Cc1cccs1)Nc1ccccc1N1CCN(Cc2ccc(Cl)c(Cl)c2)CC1 [compound 1, N-{2-[4-(3,4-dichloro-benzyl)-piperazin-1-yl]-phenyl}-2-thiophen-2-yl-acetamide] | – | 200 µM
4 | O=C(Nc1ccccc1N1CCN(Cc2ccc(Cl)c(Cl)c2)CC1)c1ccc(F)c(F)c1 [compound 2, N-{2-[4-(3,4-dichlorobenzyl)-piperazin-1-yl]-phenyl}-3,4-difluoro-benzamide] | – | 36 µM
5 | Cc1ccc(C(=O)NC2CCCCC2N2CCN(Cc3ccc(Cl)c(Cl)c3)CC2)cc1 (centres unmarked) [compound 3, N-{2-[4-(3,4-Dichloro-benzyl)-piperazin-1-yl]-cyclohexyl}-4-methyl-benzamide] | – | 12.8 µM
